We go through eight compounds from patent US20240117303A1, “METHODS AND COMPOSITIONS FOR GENERATING HUMAN MIDBRAIN DOPAMINERGIC NEURONS FROM NEURAL PROGENITOR CELLS” (Trailhead Biosystems Inc., priority 2022, published 2024).

Molecules are shown by their SMILES. “Also recorded” adds a separate entry of the source.

Assay [1] concerns stage 2 neural progenitors. The experiment in a line: HD-DoE 12-factor model for stage 3 recipe (FIG. 19-23, 29). In kind it is cell-based, human. An excerpt: To develop the neuronal differentiation recipes, the impact of various agonist and antagonists (effectors) on maturation of MB neural progenitors was investigated using the HD-DoE method described in Example 1. These effectors were chosen based on available literature on developmental biology, differentiation of stem cells as well as mouse and human single cell RNA-seq data from midbrain neurons at the time.
To engineer the recipe of stage 3 of differentiation, cells were first cultured in the stage 1 and stage 2 media as described herein, then they were treated with combinations of 8 or 12 factors for 3 days and the gene expression of cells in each condition was modeled. To guide the cells towards a subtype of midbrain dopaminergic neurons that reside in Substantia Nigra pars compacta (SNc) region of the brain, neural progenitors need to be SOX6^+ (Pereira et al. (2021) Cell Rep. 37:109975 Oosterveen et al. (2021) Stem Cell Reports 16:2718-2735 Poulin et al. (2020) Trends Neurosci. 43:155-169). CORIN, NGN2 and MSX1 are other markers involved in neurogenesis of dopaminergic neurons originating from floorplate region of developing midbrain (Wang et al. (2020) Cells 9:1489; Samata et al. (2016) Nat Commun. 7:13097; Ono et al. (2007) Development 134:3213-3225; Prakash et al. (2006) J. Physiol. 575:403410).
Therefore, we focused on maximizing expression of SOX6, CORIN, NGN2 and MSX1 in modeling experiments. One of the 12-factor models, the results of which are shown in FIG. 19, including LDN193189, AGN193109, BMP7, TTNPB, PD0325901, A8301, MHY1485, CHIR99021, XAV939, SANT-1, Purmorphamine and MK2206, provided a combination set that could maximize expression level of CORIN to more than 2000.
To assess the impact of elimination of each validated factor identified in Example 5 for the stage 3 and stage 4 recipes, we used dynamic profile analysis and compared the expression level of genes of interest in absence of each finalized factor while others are present.
In the stage 3 recipe, each of the finalized factors were removed in their respective models while other factors were present and the expression level of genes of interest was assessed compared to presence of all factors. When AGN193109 was excluded, level of all CORIN, KCNJ6, MSX1 and SOX6 decreased from 900 to 450, 50 to 35, 140 to 110 and 105 to 60, respectively. […] When PD0325901 was removed, expression levels of CORIN and KCNJ6 increased to 1200 and 70 while levels of MSX1 and SOX6 decreased to 105 and 20. In the absence of CHIR99021, the expression level of CORIN was again increased to 1200 while the level of KCNJ6 and MSX1 dropped to 50 and 115. […] Therefore, it was decided to include this compound in the final recipe. […] Therefore, CHIR99021 was also included in the final recipe.

The test system of assay [2] is stage 1 neural stem cells. The experiment in a line: HD-DoE 12-factor experiment for stage 2 recipe (first model, FIG. 5-7, 12). In kind it is cell-based, human. The settings on record: for impact on expression of LMX1A / impact on expression of FOXA2: dynamic profile / model, 12 effectors; for value of FOXA2 in absence of the factor: 10,000 with all factors; for value of LMX1A in absence of the factor: 30,000 with all factors. An excerpt: To further guide the differentiation of midbrain-committed neural stem cells to neural progenitor cells at stage 2, we performed an additional HD-DoE experiment. We thereby obtained additional gene regulatory models that were used for preparation of differentiation protocol. The basis of this was a 12-factor HD-DoE experiment with focus on initiation of differentiation of cells toward midbrain neural progenitor cells for an additional 3 days after termination of stage 1 treatment. Here, we focused on expression of LMX1A and FOXA2 in neural progenitor cells with low to zero expression of GBX2. LMX1A had significant high expression level in the model with value of 47888. Therefore, we used optimization setting for this gene to identify the positive factors. The factors in this experiment included SC79, MK2206, ZM336372, PD0325901, CHIR99021, A 83-01, TTNPB, AGN193109, GW3965, SR9243, Purmorphamine and GSI-XX.
(§1) To assess the impact of elimination of each validated factor, we used dynamic profile analysis and compared the expression level of genes of interest in absence of each finalized factor while others are present.
In the stage 2 recipe, each of the six finalized factors were removed while the other five factors were present and the expression levels of FOXA2, LMX1A and GBX2 were assessed, compared to the levels in the presence of all factors. According to the first experiment model, the absence of TTNPB lead to a rise of GBX2 expression, while the value of FOXA2 and LMX1A reduced drastically from 10,000 to 0 and 30,000 to 15,000, respectively. The absence of A 83-01 reduced the expression of FOXA2 from 10,000 to 7000, however, as expected, the value of LMX1A increased from 30,000 to 40,000. […] According to the second experiment model, the absence of BMP7 and MK2206 both reduced the level of FOXA2 while increasing the value of LMX1A, with BMP7 as the main effector that led to 0 expression of FOXA2.

Assay [3] relates to human pluripotent stem cells. The experiment in a line: HD-DoE 13-factor experiment for stage 1 recipe, gene expression modeled after 3-day treatment; dynamic profile and factor criticality analysis. In kind it is cell-based. The settings on record: for impact on expression of FOXA2 / impact on expression of OTX2: 13 effectors; for expression level of LMX1A in absence of the factor / expression level of FOXA2 in absence of the factor / expression level of DMBX1 in absence of the factor / expression level of OTX2 in absence of the factor: stage 1 recipe, other four factors present; for expression level of LMX1A in absence of the factor: 300 with all five factors; for expression level of FOXA2 in absence of the factor: 600 with all five factors; for expression level of DMBX1 in absence of the factor: 3000 with all five factors; for expression level of OTX2 in absence of the factor: 12000 with all five factors.
Text: This example utilizes a method of High-Dimensional Design of Experiments (HD-DoE), as previously described in Bukys et al. (2020) Iscience 23:101346. The method employs computerized design geometries to simultaneously test multiple process inputs and offers mathematical modeling of a deep effector/response space. The method allows for finding combinatorial signaling inputs that control a complex process, such as during cell differentiation. It allows testing of multiple plausible critical process parameters, as such parameters impact output responses, such as gene expression. Because gene expression provides hallmark features of the phenotype of, for example, a human cell, the method can be applied to identify, and understand, which signaling pathways control cell fate. In the current example, the HD-DOE method was applied with the intent to find conditions for induction of midbrain neural progenitor-expressed genes, directly from the pluripotent stem cell state.
To develop the recipe for each stage, the impact of agonists and antagonists of multiple signaling pathways (referred to herein as “effectors”) on the expression of two sets of 53 pre-selected genes after a 3-day treatment was tested and modeled. These effectors are small molecules or proteins that are commonly used during stepwise differentiation of stem cells to specific fates. The choice of the effectors to test was based on current literature on neural induction in the midbrain region of the developing brain and differentiation of stem cells to neural progenitors.
To test the effectors, experiments with at least 8 factors were designed that can assess the response of cells to 48 or more different combinations of effectors in a range of concentrations. To analyze the models, we focused on expression of genes expressed in the midbrain region, including OTX2, DMBX1, FOXA2, LMX1A, and on the absence of GBX2, which is a hindbrain marker. The impact of each effector on gene expression level is defined by a parameter called factor contribution that is calculated for each effector during the modeling.
To identify the recipe of stage 1 of differentiation, cells were treated with various effectors for 3 days and the gene expression of cells was modeled. […] This model consisted of 13 factors including LDN193189, PD173074, BLU9931, Purmorphamine, SC79, MK2206, ZM336372, PD0325901, CHIR99021, XAV939, UCLA-gp130, Tofacitinib and GO 6983.
as §1
In the stage 1 recipe, each of the five finalized factors were removed while the other four factors were present and the expression levels of OTX2, DMBX1, FOXA2 and LMX1A was assessed compared to the levels in the presence of all five factors (FIG. 11A-B). […] Expression level of DMBX1 increased in absence of LDN193189, however values of OTX2, FOXA2 and LMX1A decreased.

Where [4] appears, read: model optimized for MSX1, negative regulatory effect.
[5] abbreviates: model optimized for SOX6, negative impact.
Setting [6] is: model optimized for LMX1A, positive impact.
The mark [7] stands for this setting: model optimized for maximum expression of FOXA2, positive impact.
Where [8] appears, read: stage 2 recipe, first experiment model.
Where [9] appears, read: model maximizing expression of CORIN, negative impact.
Where [10] appears, read: Purmorphamine added to the original 4 effectors, dynamic profile.
Setting [11] is: model optimized for maximum expression of FOXA2, positive effect.

Consider `C/C(=C\c1ccc(C(=O)O)cc1)c1ccc2c(c1)C(C)(C)CCC2(C)C` [TTNPB], for which the factor contribution in assay [1] (setting [4]) was found to be 15.5; in assay [1] (setting [5]) it was 9.5; in assay [2] (setting [6]), 19.5; in assay [2] (setting [7]), 10.7. The “impact on expression of LMX1A” value in assay [2] is “positive impact”. Moreover, the “GBX2 expression in absence of the factor” value in assay [2] (setting [8]) was “rise”. Also, the “value of FOXA2 in absence of the factor” value in assay [2] (setting [8]) came to 0. In addition, the “value of LMX1A in absence of the factor” value in assay [2] (setting [8]) is recorded as 15,000.

In the case of `Cc1nn(-c2ccccc2)c(C)c1/C=N/N1CCN(Cc2ccccc2)CC1` [SANT-1], the factor contribution in assay [1] (setting [9]) was determined as 9.9.

For the compound `O=C(O)Cc1cccc(OCCCN(Cc2cccc(C(F)(F)F)c2Cl)CC(c2ccccc2)c2ccccc2)c1` [GW3965], in assay [2], the “impact on expression of FOXA2” value is “positive impact” and the “impact on expression of LMX1A” value is reported as “positive impact”. In addition, in assay [2] (setting [6]), the factor contribution turned out to be 5.4. In assay [2] (setting [8]), the “value of FOXA2 in absence of the factor” value is listed as 17,000 and the “value of LMX1A in absence of the factor” value is listed as 10,000.

Consider `Oc1nc(-c2ccc(C(F)(F)F)cc2)nc2c1CSCC2` [XAV939], for which the factor contribution worked out at 13.5 in assay [1] (setting [9]), 11.2 in assay [1] (setting [4]) and 10.8 in assay [1] (setting [5]).

`CCOC(=O)C1=C(N)Oc2ccc(Cl)cc2C1C(C#N)C(=O)OCC` (centres unmarked) [SC79] gave a factor contribution in assay [2] (setting [6]) of 7.3.

`c1ccc2c(Oc3nc(Nc4ccc(N5CCOCC5)cc4)c4ncn(C5CCCCC5)c4n3)cccc2c1` [Purmorphamine]: the “impact on expression of FOXA2” value in assay [2] is reported as “positive effect; also recorded: positive impact”. This compound also had a factor contribution in assay [2] (setting [7]) of 15.3. Further, the factor contribution in assay [2] (negative effect on LMX1A expression levels) is 26.2. Besides, in assay [2] (without addition of Purmorphamine, dynamic profile), the “expression level of FOXA2” value is listed as 5000. Moreover, in assay [3] (OTX2-optimized setting), the “impact on expression of DMBX1” value was “did not have a positive impact” and the “impact on expression of LMX1A” value was “did not have a positive impact”. For the same compound, in assay [3] (setting [10]), the “expression level of DMBX1” value came out at 3000, the “expression level of LMX1A” value is reported as 450 and the “expression level of OTX2” value is 11000. Further, in assay [3] (dynamic profile), the “impact on expression of FOXA2” value is listed as “positive impact” and the “impact on expression of OTX2” value is given as “did not have a positive impact”. Besides, the factor contribution in assay [3] (setting [11]) was found to be 22.2. In assay [3], the “expression level of LMX1A in absence of the factor” value is “beneficial”, the “expression level of FOXA2 in absence of the factor” value is listed as “reduction”, the “expression level of DMBX1 in absence of the factor” value is reported as “beneficial” and the “expression level of OTX2 in absence of the factor” value is reported as “beneficial”.

Turning to `c1ccc2c(-c3cnn4cc(-c5ccc(N6CCNCC6)cc5)cnc34)ccnc2c1` [LDN193189], the “impact on expression level of MSX1” value in assay [1] (dynamic profile, 12 effectors) is given as “high negative impact”. The factor contribution result in assay [1] (model maximizing expression of CORIN, positive regulatory impact) is “high positive factor contributions”. For the same compound, the factor contribution in assay [1] (setting [4]) worked out at 19.9. For the same compound, in assay [3] (dynamic profile), the “impact on expression of FOXA2” value was “positive impact” and the “impact on expression of OTX2” value is “positive impact”. The factor contribution in assay [3] (setting [11]) is 13.6. Also, the factor contribution in assay [3] (model optimized for maximum expression of OTX2, positive impact, 3-day treatment) is reported as 11.9. For the same compound, in assay [3], the “expression level of LMX1A in absence of the factor” value is given as “decreased”, the “expression level of FOXA2 in absence of the factor” value is reported as “decreased”, the “expression level of DMBX1 in absence of the factor” value is given as “increased” and the “expression level of OTX2 in absence of the factor” value is recorded as “decreased”.

With `Cc1cccc(-c2nn(C(=S)Nc3ccccc3)cc2-c2ccnc3ccccc23)n1` [A 83-01], the “level of GBX2” value in assay [2] (addition of A 83-01 at 300 nM, dynamic profile) is about 0. The “impact on expression of FOXA2” value in assay [2] is listed as “positive impacts”. Besides, the factor contribution in assay [2] (setting [7]) came out at 6.7. In addition, in assay [2] (setting [8]), the “value of FOXA2 in absence of the factor” value is given as 7000 and the “value of LMX1A in absence of the factor” value is reported as 40,000.
